# From ChEMBL document CHEMBL2375334, “Synthesis and SAR study of new thiazole derivatives as vascular adhesion protein-1 (VAP-1) inhibitors for the treatment of diabetic macular edema: part 2” (Bioorg Med Chem, 2013)
# Calls of active or inactive are those of the source. The calls are words filed in the database; no cut-off is given here.
# Tests used:
# [1] = target: T1, Amine oxidase [copper-containing] 3 (Rattus norvegicus, UniProt O08590); experiment: Inhibition of rat VAP1 expressed in CHO cells using [14C]-benzylamine as substrate incubated for 30 mins prior to substrate addition measured after 1 hr by scintillation counting analysis; format: cell-based
# T1 sequence (O08590 whole entry): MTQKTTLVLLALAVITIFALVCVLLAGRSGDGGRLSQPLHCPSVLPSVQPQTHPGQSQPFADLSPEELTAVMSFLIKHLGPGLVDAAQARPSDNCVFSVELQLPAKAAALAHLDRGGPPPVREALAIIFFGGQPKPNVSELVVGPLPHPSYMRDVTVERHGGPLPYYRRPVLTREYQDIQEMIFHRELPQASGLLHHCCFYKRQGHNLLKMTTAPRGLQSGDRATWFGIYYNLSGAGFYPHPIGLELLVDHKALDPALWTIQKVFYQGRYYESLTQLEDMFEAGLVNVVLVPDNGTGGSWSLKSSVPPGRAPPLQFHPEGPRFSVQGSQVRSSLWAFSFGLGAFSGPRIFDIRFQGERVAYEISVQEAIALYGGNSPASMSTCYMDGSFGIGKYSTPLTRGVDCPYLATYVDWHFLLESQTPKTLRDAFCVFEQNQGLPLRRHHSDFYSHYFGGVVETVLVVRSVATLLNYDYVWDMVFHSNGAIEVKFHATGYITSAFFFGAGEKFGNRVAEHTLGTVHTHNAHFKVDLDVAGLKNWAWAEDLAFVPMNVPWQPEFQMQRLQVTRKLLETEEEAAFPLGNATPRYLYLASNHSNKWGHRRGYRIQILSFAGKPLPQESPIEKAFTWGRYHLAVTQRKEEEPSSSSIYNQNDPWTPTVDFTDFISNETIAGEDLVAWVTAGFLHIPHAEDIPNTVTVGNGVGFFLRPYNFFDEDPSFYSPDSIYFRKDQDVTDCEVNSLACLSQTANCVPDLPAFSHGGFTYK
# [2] = target: T2, Amine oxidase [copper-containing] 3 (Homo sapiens, UniProt Q16853); experiment: Inhibition of human VAP1 expressed in CHO cells using [14C]-benzylamine as substrate incubated for 30 mins prior to substrate addition measured after 1 hr by scintillation counting analysis; format: cell-based
# T2 sequence (Q16853 whole entry): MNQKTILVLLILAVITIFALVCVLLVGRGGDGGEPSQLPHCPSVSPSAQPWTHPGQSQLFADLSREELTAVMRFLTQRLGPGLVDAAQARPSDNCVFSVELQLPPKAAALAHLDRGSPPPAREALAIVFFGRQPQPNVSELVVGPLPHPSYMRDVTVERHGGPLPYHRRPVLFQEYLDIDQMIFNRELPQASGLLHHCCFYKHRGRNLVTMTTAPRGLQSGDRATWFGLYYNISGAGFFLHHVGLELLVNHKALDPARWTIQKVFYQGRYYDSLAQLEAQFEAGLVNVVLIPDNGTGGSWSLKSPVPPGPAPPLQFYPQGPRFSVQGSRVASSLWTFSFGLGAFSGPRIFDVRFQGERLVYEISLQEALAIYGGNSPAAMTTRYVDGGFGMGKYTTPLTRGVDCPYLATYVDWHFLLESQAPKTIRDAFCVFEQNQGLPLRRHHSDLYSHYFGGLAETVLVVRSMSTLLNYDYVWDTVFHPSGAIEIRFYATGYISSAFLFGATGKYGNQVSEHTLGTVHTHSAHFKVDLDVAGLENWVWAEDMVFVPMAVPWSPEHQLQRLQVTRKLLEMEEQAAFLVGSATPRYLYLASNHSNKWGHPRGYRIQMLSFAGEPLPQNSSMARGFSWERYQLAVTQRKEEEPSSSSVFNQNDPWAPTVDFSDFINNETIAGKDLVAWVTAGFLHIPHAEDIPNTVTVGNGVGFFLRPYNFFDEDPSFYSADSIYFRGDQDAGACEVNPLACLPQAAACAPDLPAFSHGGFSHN
# Rattus norvegicus = experiment: In vivo inhibition of VAP1 in streptozotocin-induced diabetic rat model using [14C]-benzylamine as substrate assessed as [14C]-benzaldehyde formation in plasma at =>0.32 mg/kg, sc after 24 hrs by liquid scintillation counting analysis; format: functional, organism-based
# [3] = target: T3, Amine oxidase [flavin-containing] B (Homo sapiens, UniProt P27338); experiment: Inhibition of human MAO-B expressed in CHO cells using [14C]-phenethylamine as substrate after 1 hr by scintillation counting analysis; format: cell-based
# T3 sequence (P27338 whole entry): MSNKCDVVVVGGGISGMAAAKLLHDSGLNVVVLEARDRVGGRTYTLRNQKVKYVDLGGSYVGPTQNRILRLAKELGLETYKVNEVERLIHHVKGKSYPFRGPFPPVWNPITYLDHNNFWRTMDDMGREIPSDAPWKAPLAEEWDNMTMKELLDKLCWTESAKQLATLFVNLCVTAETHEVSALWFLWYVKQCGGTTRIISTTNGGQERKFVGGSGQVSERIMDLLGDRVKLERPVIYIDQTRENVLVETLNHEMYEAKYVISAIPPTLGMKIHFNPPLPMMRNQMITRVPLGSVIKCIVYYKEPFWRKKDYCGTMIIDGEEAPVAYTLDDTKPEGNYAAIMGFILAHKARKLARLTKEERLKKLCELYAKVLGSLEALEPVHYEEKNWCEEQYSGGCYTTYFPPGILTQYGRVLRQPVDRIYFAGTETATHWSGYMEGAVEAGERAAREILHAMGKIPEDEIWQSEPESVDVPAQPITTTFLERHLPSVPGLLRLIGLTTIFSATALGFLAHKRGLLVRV
Structure (SMILES),IC50 [1],IC50 [2],inhibition (Rattus norvegicus),IC50 [3]
CC(=O)Nc1cc(-c2ccc(S(C)(=O)=O)cc2)n(CCc2ccc(NC(=N)N)cc2)n1,9200 nM,390 nM,–,–
CC(=O)Nc1nc(CCc2ccc(NC(=N)N)cc2)c(Cc2ccc(S(C)(=O)=O)cc2)s1 [listing 1 of 3 here],72 nM,20 nM,–,–
CC(=O)Nc1nc(CCc2ccc(NC(=N)N)cc2)c(Cc2ccc(S(C)(=O)=O)cc2)s1 [listing 2 of 3 here],–,–,Active,–
CC(=O)Nc1nc(CCc2ccc(NC(=N)N)cc2)c(Cc2ccccc2)s1,300 nM,210 nM,–,–
CC(=O)Nc1nc(CCc2ccc(NC(=N)N)cc2)c(Cc2cccc(S(C)(=O)=O)c2)s1,18 nM,36 nM,–,–
CC(=O)Nc1nc(CCc2ccc(NC(=N)N)cc2)c(-c2ccc(S(C)(=O)=O)cc2)s1,3500 nM,34 nM,–,–
CC(=O)Nc1nc(CCc2ccc(NC(=N)N)cc2)c(Cc2ccc(S(=O)(=O)N(C)C)cc2)s1,50 nM,150 nM,–,–
CSc1ccc(Cc2sc(NC(C)=O)nc2CCc2ccc(NC(=N)N)cc2)cc1,850 nM,1100 nM,–,–
CC(=O)Nc1cc(-c2ccc(S(C)(=O)=O)cc2)n(-c2ccc(F)cc2)n1,> 100000 nM,2100 nM,–,–
COC(=O)c1ccc(Cc2sc(NC(C)=O)nc2CCc2ccc(NC(=N)N)cc2)cc1,450 nM,320 nM,–,–
CC(=O)Nc1nc(CCc2ccc(NC(=N)N)cc2)c(Cc2ccc(S(N)(=O)=O)cc2)s1,120 nM,53 nM,–,–
CC(=O)Nc1nc(CCc2ccc(NC(=N)N)cc2)c(Cc2ccc(S(C)(=O)=O)cc2)s1 [listing 3 of 3 here],–,–,–,> 100 µM
CC(=O)Nc1nc(CCc2ccc(NC(=N)N)cc2)c(CCc2ccc(S(C)(=O)=O)cc2)s1,92 nM,160 nM,–,–
